Assay results taken from patent US7001920B2, “Formate salt of O-desmethyl-venlafaxine” (Wyeth, priority 2002, dated 2006).
Each block holds one molecule with its values, some of them ahead of it.

Tests used:
[1] = Human fraction of dose absorbed (Fa) predicted from rat Peff; conditions: for human in vivo Fa (fraction of dose absorbed), estimated: small intestine
From the text: (§1) The rat intestine perfusion technique is a direct way to measure the regional absorption properties of a test compound in the gastrointestinal tract. Rat intestinal permeability coefficient (Peff) can be used to predict human in vivo oral absorption of passively absorbed compounds. Fagerholm, M. Johansson, and H. Lennernäs, ? Comparison between permeability coefficients in rat and human jejunum”, Pharm. […] Other characteristics such as formulable Maximum Absorbable Dose (MAD), FDA Biopharmaceutical Classification, etc. can also be estimated.
The fraction of dose absorbed, Fa, in human is currently predicted from (Fagerholm, M. ibid: Fa=100*(1−e^−(2*(Peff,rat+β)*(tres/r)) where […] are the correction factors, tres is the residence time in human small intestine; and r is the radius of the human small intestine. Results Rat Jejunal Perfusion Results Site-Specific Absorption of ODV Formate

[2] = Rat intestinal perfusion test (in situ), effective intestinal permeability Peff; assay type: in vivo; conditions: for Peff ODV Fumarate: 50 μg/ml in pH 6.8 perfusion buffer
Description: O-desmethyl venlafaxine formate was evaluated for oral absorption characteristics. The rat intestinal perfusion model was used.
Rat Intestinal Perfusion Test
as §1
Perfusion buffer (PB) consisted of KC1 (5.4 mM), NaC1 (48 mM), Na2HPO4 (28 mM), NaH2PO4 (43 mM), mannitol (35 mM), polyethylene glycol (PEG)-4000 (0.1%, w/v), glucose (10 mM). The pH was adjusted to 6.8 with NaOH and osmolarity was adjusted to 290+10 mOsm/l with 1.0 M NaC1. Before the experiment, ^14C-PEC-4000 (0.02 μCi/mL), 3H-mannitol (0.025 μCi/mL), metoprolol (20 μg/mL), and ODV formate or fumarate (50 μg/mL) were added.
Rats used in this study were Charles River CD males, ranging in weight from approximately 300–350 grams.
Metoprolol (a well-absorbed and passively transported compound) was used as a standard and tested simultaneously along with the ODV compounds. Glucose (a well-absorbed and actively transported compound) was used to monitor the physiological functionality of the intestinal barriers. ^14C-labeled PEG-4000 was used as a non-absorbable marker to describe the water flux across the intestinal wall. ^3H-labeled mannitol was used as a paracellularly transported marker to indicate the integrity of the intestinal tight junctions.
All chemicals were of analytical grade. After each experiment, all the analytical assays were performed promptly. For isotope determinations, 0.5 mL of perfusate sample containing ^14C PEG-4000 and ^3H-mannitol was mixed with 5 mL of scintillation cocktail. Radioactivity was counted in a liquid scintillation counter (Wallac 1409). Glucose concentration was determined by the glucose oxidase method (Biochemistry Analyzer). Metoprolol and the ODV compounds were analyzed by HPLC-UV/Vis (HP-1100 with a diode-array detector), using a YMC AQ 120μ, 5μ, 150×4.6 mm column and step gradient mobile phase containing water/0.1% TFA and acetonitrile. The ODV compounds and metoprolol were detected at 226 and 272 nm UV wavelength, respectively. Blank perfusate was assayed to evaluate the interference at these chromatographic conditions.
The perfusions were performed in three intestinal sections of anesthetized rats: duodenum-jejunum, ileum, and colon. The lengths of the segments were approximately 10–12 cm for small intestine segments and 5–6 cm for colon segments. An inflow cannula was inserted at the proximal end and an outflow cannula was inserted at the distal end. Perfusate was pumped through the segment at 0.19 mL/min, and collected at 20, 40, 55, 70, 85 and 100 minutes.
ODV formate or fumarate was added to the perfusion working buffer at a concentration of 50 μg/mL, which is approximately equivalent to a 200 mg human dose. The disappearance rates of ODV compound, metoprolol, and glucose were determined from each collection interval by comparing to the initial compound solution remaining in the syringe at the end of the 100 minutes. This is to correct for any losses due to binding to the syringe or tubing. Meanwhile, drug concentration in perfusate samples were corrected for water influx/efflux, which was computed, based on ^14C-PEG-4000 concentration changes.
Recovery of ^14C-PEG-4000 was determined to provide information on the integrity of the perfused intestinal segment: % PEGrec=(ΣPEGout/ΣPEGin)*100
Overall ^14C-PEG-4000 recovery was calculated and any data for which the individual recovery fell outside of the range of 96%–103% was excluded from the data set. […]

Histamine H1 = conditions: cited from earlier work
D2 = conditions: cited from earlier work
Cholinergic = conditions: cited from earlier work
[3] = in vivo, i.p.; cited from earlier work
Opiate = conditions: cited from earlier work
Adrenergic a = conditions: cited from earlier work
Serotonin reuptake = conditions: in vitro; read-out: Inhibition of amine reuptake (IC50): Serotonin; cited from earlier work
Norepinephrine reuptake = conditions: in vitro; read-out: Inhibition of amine reuptake (IC50): Norepinephrine; cited from earlier work
Dopamine reuptake = conditions: in vitro; read-out: Inhibition of amine reuptake (IC50): Dopamine; cited from earlier work
Solubility in water = assay type: physicochemical; conditions: 26 °C, room temperature (about 25 to 27° C.)
From the text: High solubility and high oral absorption are desireable characteristics of a drug, making this salt form of O desmethyl venlafaxine a particularly useful form of O-desmethyl venlafaxine.

[4] = male, CD, in vivo, 100 min, 50 μg/mL, pH 6.8

Compound: CN(C)CC(c1ccc(O)cc1)C1(O)CCCCC1.O=C(O)/C=C/C(=O)O (centres unmarked) [ODV fumarate]
- in vivo Fa (fraction of dose absorbed), estimated ([1]; colon): 0%
- human in vivo Fa (fraction of dose absorbed), estimated [1]: 33–45%
- Absorption in the colon ([2]; colon): no measurable absorption
- Peff ODV Fumarate / Peff Metoprolol ([2]; colon): 0
- Peff ODV Fumarate ([2]; colon): 0 10^−5 cm/sec
- Peff ODV Fumarate / Peff Metoprolol ([2]; ileum): 0.19 ± 0.06
- Peff ODV Fumarate ([2]; ileum): 0.678 ± 0.295 10^−5 cm/sec
- Peff ODV Fumarate / Peff Metoprolol ([2]; jejunum): 0.09
- Peff ODV Fumarate ([2]; jejunum): 0.245 10^−5 cm/sec
- Peff values in the small intestine ([2]; small intestine (jejunum to ileum)): 0.24–0.68 10^−5 cm/sec

- Peff Metoprolol ([2]; colon, metoprolol 20 μg/mL tested simultaneously with ODV formate): 0.583 ± 0.087 10^−5 cm/sec
- Peff Metoprolol ([2]; colon, metoprolol 20 μg/mL tested simultaneously with ODV fumarate): 11 10^−5 cm/sec
- Peff Metoprolol ([2]; ileum, metoprolol 20 μg/mL tested simultaneously with ODV formate): 3.22 ± 0.07 10^−5 cm/sec
- Peff Metoprolol ([2]; ileum, metoprolol 20 μg/mL tested simultaneously with ODV fumarate): 5.3 10^−5 cm/sec
- Peff Metoprolol ([2]; jejunum, metoprolol 20 μg/mL tested simultaneously with ODV formate): 2.50 ± 0.11 10^−5 cm/sec
- Peff Metoprolol ([2]; jejunum, metoprolol 20 μg/mL tested simultaneously with ODV fumarate): 1.78 ± 0.93 10^−5 cm/sec
Compound: COCCc1ccc(OCC(O)CNC(C)C)cc1 (centres unmarked) [Metoprolol]

Compound: CN(C)CC(c1ccc(O)cc1)C1(O)CCCCC1 (centres unmarked) [O-desmethylvenlafaxine, 1-[2-(dimethylamino)-1-(4-phenol)ethyl]cyclohexanol]
- Affinity for Various Neuroreceptors (% inhibition at 1 uM): Histamine H1 (Histamine H1): 0%
- Affinity for Various Neuroreceptors (% inhibition at 1 uM): D2 (D2): 6%
- Affinity for Various Neuroreceptors (% inhibition at 1 uM): Cholinergic (Cholinergic): 7%
- Reversal of Reserpine-Induce Hypothermia (minimum effect) [3]: 3 mg/kg i.p.
- Affinity for Various Neuroreceptors (% inhibition at 1 uM): Opiate (Opiate): 7%
- Affinity for Various Neuroreceptors (% inhibition at 1 uM): Adrenergic a (Adrenergic a): 0%
- IC50 (Serotonin reuptake): 180 nM
- IC50 (Norepinephrine reuptake): 1160 nM
- IC50 (Dopamine reuptake): 13400 nM

Compound: CN(C)CC(c1ccc(O)cc1)C1(O)CCCCC1.O=CO (centres unmarked) [ODV formate, O-desmethylvenlafaxine formate]
- human in vivo Fa (fraction of dose absorbed), estimated [1]: about 80%
- Peff as percent of metoprolol's Peff value [2, 4]: about 12%
- Peff values in the small intestine [2, 4]: 1.34–2.18 10^−5 cm/sec
- solubility (Solubility in water): > 425 mg/mL
